Literature values as cited in patent US10821185B2, “Triglyceride otic formulations and uses thereof” (Otonomy, Inc., priority 2016, dated 2020).
Counter-ions that a name gives are not always drawn.

What was measured:
[1] = target: D136A mutant VP2 receptor (Homo sapiens, UniProt P30518, D136A)
V2-R = settings: infusion into the scala tympani
[2] = after topical application
[3] = system: mouse collagen-induced arthritis model; settings: 30 mg/kg dose
[4] = system: LPS-induced human PBMC cells; settings: read-out: IC50 for inhibiting TNF-α production
tinnitus = settings: administered by IV
[5] = system: LPS-induced MonoMac-6 cells; settings: read-out: IC50 for inhibiting TNF-α production
TNF-α = settings: LPS-challenged mice
rat arthritis model = settings: 30 mg/kg
[6] = systemic administration
[7] = systemically treated

Cc1ccccc1C(=O)Nc1ccc(C(=O)N2CCCC(N(C)C)c3ccccc32)cc1 (racemic) [OPC-31260, (±)-5-dimethylamino-1-(4-[2-methylbenzoylamino]benzoyl)-2,3,4,5-tetrahydro-1H-benzazepin hydrochloride]
behaviour at constitutively activated D136A mutant VP2 receptor [1]: inverse agonist
Meniere's disease symptoms (V2-R): marked reduction of Meniere's disease symptoms

C=CC[C@@H]1/C=C(\C)C[C@H](C)C[C@H](OC)[C@H]2O[C@@](O)(C(=O)C(=O)N3CCCC[C@H]3C(=O)O[C@H](/C(C)=C/[C@@H]3CC[C@@H](O)[C@H](OC)C3)[C@H](C)[C@@H](O)CC1=O)[C@H](C)C[C@@H]2OC (relative stereo) [tacrolimus, [3S-[3R*[E(1S*,3S*,4S*)], 4S*,5R*,8S*,9E,12R*,14R*,15S*,16R*,18S*,19S*,26aR*]]-5,6,8,11,12,13,14,15,16,17,18,19,24,25,26,26a-hexadecahydro-5,19-dihydroxy-3-[2-(4-hydroxy-3-methoxycyclohexyl)-1-methylethenyl]-14,16-dimethoxy-4,10,12,18-tetramethyl-8-(2-propenyl)-15,19-epoxy-3H-pyrido[2,1-39c][1,4]oxaazacyclotricosine-1,7,20,21(4H,23H)-tetrone monohydrate]
bioavailability [2]: less than 0.5%

Cc1ccc2nc(NCCN)c3ncc(C)n3c2c1 [BMS-345541]
severity of disease [3]: significantly reduced the severity of disease

CC[C@H](C)[C@H](NC(=O)[C@H](CC(C)C)[C@H](C(C)C)N(O)C=O)C(=O)Nc1ccccn1 [GW3333]
IC50 [4]: 970 nM

CCN(CC)CC(=O)Nc1c(C)cccc1C [Lidocaine]
sufferers in whom the noise associated with tinnitus is reduced or eliminated (tinnitus): 60-80%

CC(C)C[C@@H](C(=O)N[C@@H](CCCN/C(N)=N/[N+](=O)[O-])C(=O)Nc1nccs1)[C@H](C(C)C)N(O)C=O [Nitroarginine analog A]
IC50 [5]: 34 nM

O=C(Nc1cc(Cl)cc2c1[nH]c1cnccc12)c1cccnc1 [PS-1145]
production of TNF-α (TNF-α): reduces the production of TNF-α

COc1cccc2nc(-c3cccs3)nc(NN3C(=O)C=C(C)C3=O)c12 [SPC-839]
paw edema (rat arthritis model): reduces paw edema

CCOc1ccc2c(c1)C1(CCC(OCCN3CCOCC3)CC1)C(=O)N2S(=O)(=O)c1ccc(C(=O)NC(C)(C)C)cc1OC (stereo not drawn) [SR-1211463, 1-(4-(N-tert-butylcarbamoyl)-2-methoxybenzenesulfonyl)-5-ethoxy-3-spiro-(4-(2-morpholinoethoxy)cyclohexane)indol-2-one fumarate]
behaviour at constitutively activated D136A mutant VP2 receptor [1]: inverse agonist

adalimumab
patients developing injection site reactions (erythema and/or itching, hemorrhage, pain and/or swelling) [6]: 20%

etanercept
patients experiencing injection site reactions [7]: over one-third of patients
